# Measurements from patent US10550105B2 (Ribon Therapeutics Inc., priority 2018, dated 2020).
# Molecular target: PARP7 (Homo sapiens (Human), UniProt Q7Z3E1)
# Experiment: Enzymatic assay for inhibition of PARP7: TR-FRET displacement of biotinylated Probe A from the TIPARP active site
# Format: binding
# Conditions: Table A-1
# In short: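 Compounds were tested as dose-response series, and reactions were incubated a further 30 min at 25° C. TR-FRET was read at 320 nm excitation with 615 and 665 nm emission after a 90 μs delay. The 665/615 ratio gave the TIPARP–Probe A complex, and % inhibition was fitted against concentration.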
# Chain of PARP7 (Q7Z3E1 whole entry): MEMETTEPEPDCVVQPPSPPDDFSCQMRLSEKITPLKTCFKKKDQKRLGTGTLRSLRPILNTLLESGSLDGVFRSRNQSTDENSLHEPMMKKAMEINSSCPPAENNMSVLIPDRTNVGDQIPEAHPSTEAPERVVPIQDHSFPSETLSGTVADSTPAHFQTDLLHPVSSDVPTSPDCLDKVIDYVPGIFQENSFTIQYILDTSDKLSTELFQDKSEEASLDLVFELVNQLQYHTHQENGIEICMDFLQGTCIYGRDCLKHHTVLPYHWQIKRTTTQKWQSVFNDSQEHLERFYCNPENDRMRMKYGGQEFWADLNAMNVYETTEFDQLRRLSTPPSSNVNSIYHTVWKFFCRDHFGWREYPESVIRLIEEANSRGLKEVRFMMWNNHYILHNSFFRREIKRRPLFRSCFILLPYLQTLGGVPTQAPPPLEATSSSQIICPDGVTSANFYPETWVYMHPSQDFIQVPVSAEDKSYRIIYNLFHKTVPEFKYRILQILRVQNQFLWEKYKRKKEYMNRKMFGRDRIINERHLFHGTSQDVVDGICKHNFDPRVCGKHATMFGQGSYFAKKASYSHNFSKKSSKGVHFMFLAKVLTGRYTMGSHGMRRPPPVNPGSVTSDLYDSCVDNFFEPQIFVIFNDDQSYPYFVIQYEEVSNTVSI
row,Compound,IC50
1,"CC1c2ccccc2CN1c1cn[nH]c(=O)c1Cl (stereo not drawn) [Example 208, 4-Chloro-5-(1-methylisoindolin-2-yl)pyridazin-3(2H)-one]",≥ 1000 nM
2,"NCCOc1cccc2c1CN(c1cn[nH]c(=O)c1C(F)(F)F)C2 [Example 209, 5-(4-(2-Aminoethoxy)isoindolin-2-yl)-4-(trifluoromethyl)pyridazin-3(2H)-one]",< 100 nM
3,"CN1CCC(Oc2cccc3c2CN(c2cn[nH]c(=O)c2C(F)(F)F)C3)CC1 [Example 210, 5-(4-((1-Methylpiperidin-4-yl)oxy)isoindolin-2-yl)-4-(trifluoromethyl)pyridazin-3(2H)-one]",100 to 1000 nM
4,"CC(=O)NCCOc1cccc2c1CN(c1cn[nH]c(=O)c1C(F)(F)F)C2 [Example 211, N-(2-((2-(6-Oxo-5-(trifluoromethyl)-1,6-dihydropyridazin-4-yl)isoindolin-4-yl)oxy)ethyl)acetamide]",< 100 nM
5,"CN(C)CCOc1cccc2c1CN(c1cn[nH]c(=O)c1C(F)(F)F)C2 [Example 212, 5-(4-(2-(Dimethylamino)ethoxy)isoindolin-2-yl)-4-(trifluoromethyl)pyridazin-3(2H)-one]",100 to 1000 nM
6,"O=c1[nH]ncc(N2Cc3cccc(OCCN4CCCCC4)c3C2)c1C(F)(F)F [Example 213, 5-(4-(2-(Piperidin-1-yl)ethoxy)isoindolin-2-yl)-4-(trifluoromethyl)pyridazin-3(2H)-one]",100 to 1000 nM
7,"O=c1[nH]ncc(N2Cc3cccc(OCCN4CCOCC4)c3C2)c1C(F)(F)F [Example 214, 5-(4-(2-Morpholinoethoxy)isoindolin-2-yl)-4-(trifluoromethyl)pyridazin-3(2H)-one]",< 100 nM
8,"CNc1cccc2c1CN(c1cn[nH]c(=O)c1C(F)(F)F)C2 [Example 215, 5-(4-(Methylamino)isoindolin-2-yl)-4-(trifluoromethyl)pyridazin-3(2H)-one]",< 100 nM
9,"O=c1[nH]ncc(N2Cc3cccc(OCC4CCCCO4)c3C2)c1C(F)(F)F (stereo not drawn) [Example 216, 5-(4-((Tetrahydro-2H-pyran-2-yl)methoxy)isoindolin-2-yl)-4-(trifluoromethyl)pyridazin-3(2H)-one]",< 100 nM
10,"CNCCOc1cccc2c1CN(c1cn[nH]c(=O)c1C(F)(F)F)C2 [Example 217, 5-(4-(2-(Methylamino)ethoxy)isoindolin-2-yl)-4-(trifluoromethyl)pyridazin-3(2H)-one]",100 to 1000 nM
11,"O=c1[nH]ncc(N2Cc3ccc(OC4CCNC4)cc3C2)c1C(F)(F)F (stereo not drawn) [Example 218, 5-(5-(Pyrrolidin-3-yloxy)isoindolin-2-yl)-4-(trifluoromethyl)pyridazin-3(2H)-one]",< 100 nM
12,"O=c1[nH]ncc(N2Cc3ccc(O)cc3C2)c1C(F)(F)F [Example 219, 5-(5-Hydroxyisoindolin-2-yl)-4-(trifluoromethyl)pyridazin-3(2H)-one]",< 100 nM
13,"O=c1[nH]ncc(N2Cc3cccc(OCCN4CCNCC4)c3C2)c1Cl [Example 220, 4-Chloro-5-(4-(2-(piperazin-1-yl)ethoxy)isoindolin-2-yl)pyridazin-3(2H)-one]",100 to 1000 nM
14,"NCc1cccc2c1CN(c1cn[nH]c(=O)c1C(F)(F)F)C2 [Example 221, 5-(4-(Aminomethyl)isoindolin-2-yl)-4-(trifluoromethyl)pyridazin-3(2H)-one]",≥ 1000 nM
15,"O=c1[nH]ncc(N2Cc3cccc(OC[C@H]4CCCO4)c3C2)c1C(F)(F)F [Example 223, (R)-5-(4-((Tetrahydrofuran-2-yl)methoxy)isoindolin-2-yl)-4-(trifluoromethyl)pyridazin-3(2H)-one]",< 100 nM
16,"CC(=O)N(C)CCOc1cccc2c1CN(c1cn[nH]c(=O)c1C(F)(F)F)C2 [Example 224, N-Methyl-N-(2-((2-(6-oxo-5-(trifluoromethyl)-1,6-dihydropyridazin-4-yl)isoindolin-4-yl)oxy)ethyl)acetamide]",< 100 nM
17,"CC(=O)N1CCC(Oc2cccc3c2CN(c2cn[nH]c(=O)c2C(F)(F)F)C3)CC1 [Example 225, 5-(4-((1-Acetylpiperidin-4-yl)oxy)isoindolin-2-yl)-4-(trifluoromethyl)pyridazin-3(2H)-one]",< 100 nM
18,"CN1CCN(CCOc2cccc3c2CN(c2cn[nH]c(=O)c2C(F)(F)F)C3)CC1 [Example 226, 5-(4-(2-(4-Methylpiperazin-1-yl)ethoxy)isoindolin-2-yl)-4-(trifluoromethyl)pyridazin-3(2H)-one]",< 100 nM
19,"O=c1[nH]ncc(N2Cc3cccc(OCCN4CCNCC4)c3C2)c1C(F)(F)F [Example 227, 5-(4-(2-(Piperazin-1-yl)ethoxy)isoindolin-2-yl)-4-(trifluoromethyl)pyridazin-3(2H)-one]",< 100 nM
20,"CC(=O)N1CCN(CCOc2cccc3c2CN(c2cn[nH]c(=O)c2C(F)(F)F)C3)CC1 [Example 228, 5-(4-(2-(4-Acetylpiperazin-1-yl)ethoxy)isoindolin-2-yl)-4-(trifluoromethyl)pyridazin-3(2H)-one]",< 100 nM
21,"COCCOc1ccc2c(c1)CN(c1cn[nH]c(=O)c1C(F)(F)F)C2 [Example 229, 5-(5-(2-Methoxyethoxy)isoindolin-2-yl)-4-(trifluoromethyl)pyridazin-3(2H)-one]",< 100 nM

row,Compound,IC50
1,"CC(=O)N1CCN(CCOc2cccc3c2CN(c2cn[nH]c(=O)c2Cl)C3)CC1 [Example 230, 5-(4-(2-(4-Acetylpiperazin-1-yl)ethoxy)isoindolin-2-yl)-4-chloropyridazin-3(2H)-one]",100 to 1000 nM
2,"NCC1c2ccccc2CN1c1cn[nH]c(=O)c1Cl (stereo not drawn) [Example 231, 5-(1-(Aminomethyl)isoindolin-2-yl)-4-chloropyridazin-3(2H)-one]",≥ 1000 nM
3,"O=c1[nH]ncc(N2Cc3cccc(Oc4ccncc4)c3C2)c1C(F)(F)F [Example 232, 5-(4-(pyridin-4-yloxy)isoindolin-2-yl)-4-(trifluoromethyl)pyridazin-3(2H)-one trifluoroacetic acid]",< 100 nM
4,"O=c1[nH]ncc(N2Cc3cccc(Oc4cccnc4)c3C2)c1C(F)(F)F [Example 233, 5-(4-(Pyridin-3-yloxy)isoindolin-2-yl)-4-(trifluoromethyl)pyridazin-3(2H)-one]",< 100 nM
5,"COc1cc2c(cc1F)CN(c1cn[nH]c(=O)c1C(F)(F)F)C2 [Example 234, 5-(5-Fluoro-6-methoxyisoindolin-2-yl)-4-(trifluoromethyl)pyridazin-3(2H)-one]",< 100 nM
6,"O=c1[nH]ncc(N2Cc3ccccc3C2CO)c1C(F)(F)F (stereo not drawn) [Example 235, 5-(1-(Hydroxymethyl)isoindolin-2-yl)-4-(trifluoromethyl)pyridazin-3(2H)-one]",≥ 1000 nM
7,"O=c1[nH]ncc(N2Cc3cccnc3C2)c1C(F)(F)F [Example 236, 5-(5,7-Dihydro-6H-pyrrolo[3,4-b]pyridin-6-yl)-4-(trifluoromethyl)pyridazin-3(2H)-one]",< 100 nM
8,"CN1CCC(Oc2ccc3c(c2)CN(c2cn[nH]c(=O)c2C(F)(F)F)C3)C1 (stereo not drawn) [Example 238, 5-(5-((1-Methylpyrrolidin-3-yl)oxy)isoindolin-2-yl)-4-(trifluoromethyl)pyridazin-3(2H)-one]",< 100 nM
9,"COCC1c2ccccc2CN1c1cn[nH]c(=O)c1C(F)(F)F (stereo not drawn) [Example 239, 5-(1-(Methoxymethyl)isoindolin-2-yl)-4-(trifluoromethyl)pyridazin-3(2H)-one]",≥ 1000 nM
10,"O=c1[nH]ncc(N2Cc3cccc(OCCN4CCOCC4)c3C2)c1Cl [Example 240, 4-Chloro-5-(4-(2-morpholinoethoxy)isoindolin-2-yl)pyridazin-3(2H)-one]",100 to 1000 nM
11,"CC(=O)NCCOc1cccc2c1CN(c1cn[nH]c(=O)c1Cl)C2 [Example 241, N-(2-((2-(5-Chloro-6-oxo-1,6-dihydropyridazin-4-yl)isoindolin-4-yl)oxy)ethyl)acetamide]",100 to 1000 nM
12,"O=c1[nH]ncc(N2Cc3cccc(OC4CCNC4)c3C2)c1Cl (stereo not drawn) [Example 242, 4-Chloro-5-(4-(pyrrolidin-3-yloxy)isoindolin-2-yl)pyridazin-3(2H)-one]",100 to 1000 nM
13,"CC(C)c1c(N2Cc3cccc(OCCO)c3C2)cn[nH]c1=O [Example 243, 5-(4-(2-Hydroxyethoxy)isoindolin-2-yl)-4-isopropylpyridazin-3(2H)-one]",≥ 1000 nM
14,"O=c1[nH]ncc(N2Cc3ccc(OC4CCCNC4)cc3C2)c1C(F)(F)F (stereo not drawn) [Example 244, 5-(5-(Piperidin-3-yloxy)isoindolin-2-yl)-4-(trifluoromethyl)pyridazin-3(2H)-one]",100 to 1000 nM
15,"O=c1[nH]ncc(N2Cc3cc(F)c(OCCO)cc3C2)c1C(F)(F)F [Example 245, 5-(5-Fluoro-6-(2-hydroxyethoxy)isoindolin-2-yl)-4-(trifluoromethyl)pyridazin-3(2H)-one]",< 100 nM
16,"O=c1[nH]ncc(N2Cc3ccccc3[C@@H]2CO)c1C(F)(F)F [Example 246, (R)-5-(1-(Hydroxymethyl)isoindolin-2-yl)-4-(trifluoromethyl)pyridazin-3(2H)-one]",≥ 1000 nM
17,"O=c1[nH]ncc(N2Cc3ccccc3[C@H]2CO)c1C(F)(F)F [Example 247, (S)-5-(1-(Hydroxymethyl)isoindolin-2-yl)-4-(trifluoromethyl)pyridazin-3(2H)-one]",≥ 1000 nM
18,"CC(C)c1c(N2Cc3cccc(OC4CCNCC4)c3C2)cn[nH]c1=O [Example 248, 4-Isopropyl-5-(4-(piperidin-4-yloxy)isoindolin-2-yl)pyridazin-3(2H)-one]",≥ 1000 nM
19,"CC1c2ccccc2CN1c1cn[nH]c(=O)c1C(F)(F)F (stereo not drawn) [Example 249, 5-(1-Methylisoindolin-2-yl)-4-(trifluoromethyl)pyridazin-3(2H)-one]",100 to 1000 nM
20,"C[C@H]1c2ccccc2CN1c1cn[nH]c(=O)c1C(F)(F)F [Example 250, (S)-5-(1-Methylisoindolin-2-yl)-4-(trifluoromethyl)pyridazin-3(2H)-one]",100 to 1000 nM
21,"C[C@@H]1c2ccccc2CN1c1cn[nH]c(=O)c1C(F)(F)F [Example 251, (R)-5-(1-Methylisoindolin-2-yl)-4-(trifluoromethyl)pyridazin-3(2H)-one]",≥ 1000 nM
